What was measured:
CYP2D6 = CYP2D6 (Homo sapiens, UniProt P10635); test: Inhibitory activity on CYP2D6, human recombinant CYPs; format: in vitro ADME; settings: human recombinant CYP2D6, substrate ethylene glycol ester of luciferin-6'-methyl ether; read-out: CYP 2D6 inhibition, IC50 value
Method: The purpose of this pharmacokinetic study was to investigate the inhibitory effects of test compounds on the specific metabolic activity of human CYP isozymes using human recombinant CYPs in vitro. […] The specific substrate and positive control is ethylene glycol ester of luciferin-6′-methyl ether and quinidine, respectively. The substrate for the CYP isozyme was incubated with human recombinant CYPs in the presence or absence of the test compounds and the metabolic activity of the CYP isozyme was determined. The reaction mixture was preincubated at 37° C. without NADPH generating system. The reaction was started by the addition of NADPH generating system, and then terminated by the addition of acetonitrile. The activities of the human CYP isozymes were measured by fluorescence signal (CYP2D6) of reaction mixture.

scopolamine-treated mice = test: Object recognition test, 3 h inter-trial interval, scopolamine-induced episodic memory deficit

Chain of CYP2D6 (P10635 whole entry): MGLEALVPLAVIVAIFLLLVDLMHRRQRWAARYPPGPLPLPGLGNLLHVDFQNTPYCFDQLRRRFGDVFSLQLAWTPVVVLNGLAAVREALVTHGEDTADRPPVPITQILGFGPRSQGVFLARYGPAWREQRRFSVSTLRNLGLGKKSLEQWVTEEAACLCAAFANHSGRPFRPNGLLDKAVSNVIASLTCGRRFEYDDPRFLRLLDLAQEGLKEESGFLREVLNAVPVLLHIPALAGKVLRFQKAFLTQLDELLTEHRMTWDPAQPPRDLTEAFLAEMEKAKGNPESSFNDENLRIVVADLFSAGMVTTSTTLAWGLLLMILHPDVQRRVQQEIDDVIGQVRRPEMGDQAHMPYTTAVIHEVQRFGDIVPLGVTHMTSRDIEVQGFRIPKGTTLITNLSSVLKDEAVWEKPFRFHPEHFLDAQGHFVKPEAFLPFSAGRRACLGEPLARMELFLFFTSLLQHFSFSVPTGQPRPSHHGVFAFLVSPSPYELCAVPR

Cn1ccnc1-c1ccc(C2CN(c3nc(-c4ccncn4)cc(=O)n3C)CCO2)cc1 (stereo not drawn) [Compound 4, 1-Methyl-2-{2-[4-(1-methyl-1H-imidazol-2-yl)-phenyl]-morpholin-4-yl}-1H-[4,4′]bipyrimidinyl-6-one]
IC50 (CYP2D6): > 50 µM
melting point: 179.8 °C (dec.)

Cc1nc(-c2ccc([C@H]3CN(c4nc(-c5ccncn5)cc(=O)n4C)CCO3)cc2)no1 [Compound of the present invention]
IC50 (CYP2D6): > 50 µM
melting point: 191 °C
effect on episodic memory deficits induced by scopolamine (scopolamine-treated mice; 3 mg/kg oral): ineffective
MED, prevention of episodic memory deficits (scopolamine-treated mice; scopolamine-treated mice): 10 mg/kg

Cn1c(N2CCOC(c3nc(-c4ccccc4)no3)C2)nc(-c2ccncn2)cc1=O (stereo not drawn) [Compound 1, 1-Methyl-2-[2-(3-phenyl-[1,2,4]oxadiazol-5-yl)-morpholin-4-yl]-1H-[4,4′]bipyrimidinyl-6-one]
IC50 (CYP2D6): > 50 µM

CN1[C@@H]2C[C@@H](OC(=O)[C@H](CO)c3ccccc3)C[C@H]1[C@@H]1O[C@@H]12 [scopolamine, reference compound]
recognition index (RI) (scopolamine-treated mice; scopolamine 1 mg/kg 30 minutes before acquisition, 0 mg/kg test compound, 3 h interval): 49.9%

Cn1c(N2CCOC(c3noc(-c4ccccc4)n3)C2)nc(-c2ccncn2)cc1=O (stereo not drawn) [Compound 2, 1-Methyl-2-[2-(5-phenyl-[1,2,4]oxadiazol-3-yl)-morpholin-4-yl]-1H-[4,4′]bipyrimidinyl-6-one]
IC50 (CYP2D6): > 25 µM

Source: patent US8518939B2, “6-pyrimidinyl-pyrimid-4-one derivative” (Mitsubishi Tanabe Pharma Corporation, priority 2007, dated 2013)
